# Test results as given in article PMC9410265, “Citrate Regulates the Saccharomyces cerevisiae Mitochondrial GDP/GTP Carrier (Ggc1p) by Triggering Unidirectional Transport of GTP” (Journal of Fungi, 2022).
# Numbering of substitutions follows the chain as printed. Numbers in names are those of the source.
# B1: Ggc1p (yeast mitochondrial GDP/GTP carrier) (Saccharomyces cerevisiae S288C) (protein)
# chain: MPHTDKKQSGLARLLGSASAGIMEIAVFHPVDTISKRLMSNHTKITSGQELNRVIFRDHFSEPLGKRLFTLFPGLGYAASYKVLQRVYKYGGQPFANEFLNKHYKKDFDNLFGEKTGKAMRSAAAGSLIGIGEIVLLPLDVLKIKRQTNPESFKGRGFIKILRDEGLFNLYRGWGWTAARNAPGSFALFGGNAFAKEYILGLKDYSQATWSQNFISSIVGACSSLIVSAPLDVIKTRIQNRNFDNPESGLRIVKNTLKNEGVTAFFKGLTPKLLTTGPKLVFSFALAQSLIPRFDNLLSK
# notes: E. coli BL21(DE3) inclusion bodies, sarkosyl-solubilized, reconstituted in liposomes; calculated 33,215 Da with initiator Met
# Key:
# [1] = target: T1, Ggc1p (yeast mitochondrial GDP/GTP carrier) (Saccharomyces cerevisiae, UniProt P38988); assay: inhibition of [[…]-3H]GTP uptake into proteoliposomes; assay type: biochemical; conditions: citrate-induced GTP uptake (5 mM internal citrate); 1 μM [8-3H]GTP; pH 7.0, 25 °C
# T1 construct: gene GGC1; E. coli BL21(DE3) inclusion bodies, sarkosyl-solubilized, reconstituted in liposomes; calculated 33,215 Da with initiator Met
# T1 sequence (P38988 1-300): B1 chain
# [2] = target: T1, Ggc1p (yeast mitochondrial GDP/GTP carrier); assay: as above; assay type: biochemical; conditions: GTP/GTP exchange (5 mM internal GTP) and citrate-induced uptake (5 mM internal citrate); 1 μM [8-3H]GTP; pH 7.0, 25 °C
# [3] = target: T1, Ggc1p (yeast mitochondrial GDP/GTP carrier); assay: [[…]-3H]GTP uptake into effector-loaded proteoliposomes; assay type: biochemical; conditions: activator of GTP uniport; 5 mM internal compound; 1 μM external [8-3H]GTP; pH 7.0, 25 °C
# [4] = target: T1, Ggc1p (yeast mitochondrial GDP/GTP carrier); assay: radiolabelled GTP uptake into proteoliposomes, activation by internal citrate; assay type: biochemical; conditions: activator (trans-activation of GTP uniport), not transported; allosteric, site distinct from GTP site; 10 μM external [8-3H]GTP; pH 7.0, 25 °C
# [5] = target: T2, Ggc1p (yeast mitochondrial GDP/GTP carrier) (Saccharomyces cerevisiae, UniProt P38988, K154A); assay: radiolabelled GTP uptake into citrate-loaded proteoliposomes, […] s; assay type: biochemical; conditions: activator; 5 mM internal citrate; 1 μM external [8-3H]GTP; pH 7.0, 25 °C
# T2 construct: gene GGC1; E. coli BL21(DE3) inclusion bodies, sarkosyl-solubilized, reconstituted in liposomes; calculated 33,215 Da with initiator Met
# T2 sequence (P38988 1-300 K154A): B1 chain with K154A
# [6] = target: T3, Ggc1p (yeast mitochondrial GDP/GTP carrier) (Saccharomyces cerevisiae, UniProt P38988, R156A); assay: as above; assay type: biochemical; conditions: activator; 5 mM internal citrate; 1 μM external [8-3H]GTP; pH 7.0, 25 °C
# T3 construct: gene GGC1; E. coli BL21(DE3) inclusion bodies, sarkosyl-solubilized, reconstituted in liposomes; calculated 33,215 Da with initiator Met
# T3 sequence (P38988 1-300 R156A): B1 chain with R156A
# [7] = substrate: Nc1nc2c(ncn2[C@@H]2O[C@H](COP(=O)(O)OP(=O)(O)OP(=O)(O)O)[C@@H](O)[C@H]2O)c(=O)[nH]1; assay: purified protein; assay type: biochemical, Saccharomyces cerevisiae; conditions: citrate-induced GTP uniport, internal citrate 0.15-0.6 mM, external 0.25-1 μM [8-3H]GTP, pH 7.0, 25 °C, labelled compound
molecule,measurement,setting,value
CO[C@H](C/C=C\C=C\CC/C=C/C[C@H](C)/C=C/C(=C\C(=O)O)CC(=O)O)/C(C)=C\C=C(/C)C(=O)O [bongkrekic acid],% inhibition at 0.1 mM,[1],"CIGU was partially inhibited by p-hydroxymercuribenzoate, carboxyatractyloside and bongkrekate"
Cc1cc(C2(c3cc(C)c(O)c(Br)c3)OS(=O)(=O)c3ccccc32)cc(Br)c1O [bromocresol purple],% inhibition at 0.3 mM,[2],tannic acid and bromocresol purple (inhibitors of the mitochondrial glutamate carriers)
O=C(O)/C=C(/CC(=O)O)C(=O)O [cis-aconitate],[8-3H]GTP uptake into effector-loaded proteoliposomes,[3],"GTP uptake was also observed with proteoliposomes containing citrate, isocitrate, cis-aconitate"
O=C(O)CC(O)(CC(=O)O)C(=O)O [citrate],EC50,[4],510 µM
same,% of wild-type uptake,[5],CIGU in K154A and R156A mutants were markedly decreased with respect to that of wild-type
same,% of wild-type uptake,[6],CIGU in K154A and R156A mutants were markedly decreased with respect to that of wild-type
O=C(O)C[C@H](C(=O)O)[C@@H](O)C(=O)O [isocitrate],[8-3H]GTP uptake into effector-loaded proteoliposomes,[3],"GTP uptake was also observed with proteoliposomes containing citrate, isocitrate, cis-aconitate"
B1,Km,[7],0.72 µM
